Each structure is given as a SMILES string.

From patent US11578055B2, “Triazacyclododecansulfonamide (“TCD”)-based protein secretion inhibitors” (KEZAR LIFE SCIENCES, priority 2018, dated 2023) come the findings set out here.

The test system of the assay is B16F10 cells. Description: Efficacy study: tumor growth and body weight in a B16F10 model. Type of assay: in vivo, C57BL/6 mice. Conditions: B16F10 refractory model, once-a-week dosing, compared to anti-PD-1 therapy. As to the method:
Efficacy Study: Effect of Compound A87 on Tumor Growth and Body Weight in a B16F10 Model Comparted to Anti-PD-1 Therapy.
Female C57BL/6 mice (7-8 week old) were injected in the flank subcutaneously with 5×10^6 B16F10 cells in 0.1 ml on Day 0. On Day 3, compound A87 formulated in 10% ETOH/10% Kolliphor EL was administered IV 30 mg/kg QW, IV 10 mg/kg D1D2, or IP 15 mg/kg QOD. Anti-PD1 antibody treatment (RMP1-14 from Bioxcell, 200 μg) was administered i.p. on a QOD×3 dose schedule. Tumor size was monitored with a digital caliper (Fowler) every 2-3 d until reaching a size of 1.5-2.0 cm and expressed as volume (length×width×height). B16F10, a melanoma line, was obtained from ATCC. C57/BL6 mice were purchased from Charles rivers laboratories.

Turning to `C[C@H]1CN(S(=O)(=O)c2ccc(N(C)C)cc2)CCCN(CC2CCCCC2)CCCN(S(=O)(=O)N2CCc3cc(Cl)ccc3C2)C1` [A87], the tumor growth inhibition entry is “superior efficacy”.
